In US9833497B2, “Human originated EGF domain proteins and use of the same” (CHENGDU SOURCEBIO LIMITED-LIABILITY COMPANY, priority 2013, dated 2017):

Columns and labels:
Assay type in all cases: cell-based
[1] = test system: E. coli DH5α; assay: Antibacterial activity: MIC and growth curve against E. coli DH5α in 96-well plate; conditions: minimal inhibitory concentration against E. coli DH5α; 96-well plate, 5×10^5 CFU/mL, 37° C., judged after 8 h
Procedure, shortened: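 MIC taken as lowest protein level with no bacterial growth, tracked by A600 every 30 min during 37 °C, 175 rpm culture. Two-fold protein series 50-12.5 μg/mL final, triplicate wells, against 5×10^5 CFU/mL of LB-washed mid-log cells.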

[2] = test system: E. coli BL21; assay: MIC against Gram-negative bacteria: E. coli BL21; conditions: 5×10^5 CFU/mL
Procedure, shortened: (§1)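 Bacteria grown in LB at 37° C to McFarland 0.5, resuspended and seeded at 5×10^5 CFU/mL in 96-well plates. Purified human EGF-domain proteins two-fold serially diluted, triplicate wells; cultured at 37° C, shaking 175 rpm. MIC = lowest protein concentration with no growth.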

[3] = test system: Pseudomonas aeruginosa; assay: MIC against Gram-negative bacteria: Pseudomonas aeruginosa; conditions: 5×10^5 CFU/mL
Procedure, shortened: as §1

[4] = test system: Klebsiella pneumonia; assay: MIC against Gram-negative bacteria: Klebsiella pneumonia; conditions: 5×10^5 CFU/mL
Procedure, shortened: as §1

[5] = test system: Enterobacter cloacae; assay: MIC against Gram-negative bacteria: Enterobacter cloacae; conditions: 5×10^5 CFU/mL
Procedure, shortened: as §1

[6] = test system: Aeromonas hydrophila; assay: MIC against Gram-negative bacteria: Aeromonas hydrophila; conditions: 5×10^5 CFU/mL
Procedure, shortened: as §1

[7] = test system: Citrobacter diversus; assay: MIC against Gram-negative bacteria: Citrobacter diversus; conditions: 5×10^5 CFU/mL
Procedure, shortened: as §1

[8] = test system: Moraxella catarrhalis; assay: MIC against Gram-negative bacteria: Moraxella catarrhalis; conditions: 5×10^5 CFU/mL
Procedure, shortened: as §1

[9] = test system: Proteus mirabilis; assay: MIC against Gram-negative bacteria: Proteus mirabilis; conditions: 5×10^5 CFU/mL
Procedure, shortened: as §1

[10] = test system: Proteus vulgaris; assay: MIC against Gram-negative bacteria: Proteus vulgaris; conditions: 5×10^5 CFU/mL
Procedure, shortened: as §1

[11] = test system: Serratia marcescens; assay: MIC against Gram-negative bacteria: Serratia marcescens; conditions: 5×10^5 CFU/mL
Procedure, shortened: as §1

[12] = E. coli BL21, 10 h cultivation at 37° C.
[13] = Pseudomonas aeruginosa, 10 h cultivation at 37° C.
[14] = Klebsiella pneumonia, 10 h cultivation at 37° C.
[15] = Enterobacter cloacae, 10 h cultivation at 37° C.
[16] = Aeromonas hydrophila, 10 h cultivation at 37° C.
[17] = Citrobacter diversus, 10 h cultivation at 37° C.
[18] = Moraxella catarrhalis, 10 h cultivation at 37° C.
[19] = Proteus mirabilis, 10 h cultivation at 37° C.
[20] = Proteus vulgaris, 10 h cultivation at 37° C.
[21] = Serratia marcescens, 10 h cultivation at 37° C.

Row | Substance | MIC [1] [µg/mL] | MIC against E. coli BL21 [2, 12] [µg/mL] | MIC against P. aeruginosa [3, 13] [µg/mL] | MIC against K. pneumonia [4, 14] [µg/mL] | MIC against E. cloacae [5, 15] [µg/mL] | MIC against A. hydrophila [6, 16] [µg/mL] | MIC against C. diversus [7, 17] [µg/mL] | MIC against M. catarrhalis [8, 18] [µg/mL] | MIC against P. mirabilis [9, 19] [µg/mL] | MIC against P. vulgaris [10, 20] [µg/mL] | MIC against S. marcescens [11, 21] [µg/mL] | MIC against E. coli BL21 ([2]; 96-well plate, 37° C., 10 h) [µg/mL] | MIC against P. aeruginosa ([3]; 96-well plate, 37° C., 10 h) [µg/mL] | MIC against K. pneumonia ([4]; 96-well plate, 37° C., 10 h) [µg/mL] | MIC against E. cloacae ([5]; 96-well plate, 37° C., 10 h) [µg/mL] | MIC against A. hydrophila ([6]; 96-well plate, 37° C., 10 h) [µg/mL] | MIC against C. diversus ([7]; 96-well plate, 37° C., 10 h) [µg/mL] | MIC against M. catarrhalis ([8]; 96-well plate, 37° C., 10 h) [µg/mL] | MIC against P. mirabilis ([9]; 96-well plate, 37° C., 10 h) [µg/mL] | MIC against P. vulgaris ([10]; 96-well plate, 37° C., 10 h) [µg/mL] | other results
1 | PRT1384 (STRTCPRDCRGRGRCEDGECICDTGYSGDDC; listed as Homo sapiens) | 25 | 12.5 | 25 | 50 | 25 | 25 | 25 | 12.5 | 25 | 50 | 25 |  |  |  |  |  |  |  |  |  | 
2 | PRT1472 (LEHPCASLCCGHGTCIDGIGSFSCDCRSGWEGRFCQ; listed as Homo sapiens) | 50 | 50 | 25 | 25 | 12.5 | 25 | 12.5 | 25 | 12.5 | 25 | 50 |  |  |  |  |  |  |  |  |  | 
3 | PRT536 (CECHPTGATGPHCSPEGGQCPCQPNVIGRQCTRCATGHYGFPRCKP; listed as Homo sapiens) | 12.5 |  |  |  |  |  |  |  |  |  |  | 50 | 12.5 | 50 | 12.5 | 50 | 12.5 | 50 | 12.5 | 50 | MIC against S. marcescens ([11]; 96-well plate, 37° C., 10 h): 12.5 µg/mL
4 | PRT66 (DDNICLREPCENYMKCVSVLRFDSSAPFLSSTTVLFRPIHPINGLRCRCPPGFTGDYCE; listed as Homo sapiens) | 12.5 |  |  |  |  |  |  |  |  |  |  |  |  |  |  |  |  |  |  |  | MIC (μg/mL) E. coli BL21 ([2]; E. coli BL21, 96-well plate, 37° C., 10 h): 12.5 µg/mL; MIC (μg/mL) P. aeruginosa ([3]; Pseudomonas aeruginosa, 96-well plate, 37° C., 10 h): 12.5 µg/mL; MIC (μg/mL) K. pneumonia ([4]; Klebsiella pneumonia, 96-well plate, 37° C., 10 h): 12.5 µg/mL; MIC (μg/mL) E. cloacae ([5]; Enterobacter cloacae, 96-well plate, 37° C., 10 h): 12.5 µg/mL; MIC (μg/mL) A. hydrophila ([6]; Aeromonas hydrophila, 96-well plate, 37° C., 10 h): 12.5 µg/mL; MIC (μg/mL) C. diversus ([7]; Citrobacter diversus, 96-well plate, 37° C., 10 h): 25 µg/mL; MIC (μg/mL) M. catarrhalis ([8]; Moraxella catarrhalis, 96-well plate, 37° C., 10 h): 12.5 µg/mL; MIC (μg/mL) P. mirabilis ([9]; Proteus mirabilis, 96-well plate, 37° C., 10 h): 25 µg/mL; MIC (μg/mL) P. vulgaris ([10]; Proteus vulgaris, 96-well plate, 37° C., 10 h): 12.5 µg/mL; MIC (μg/mL) S. marcescens ([11]; Serratia marcescens, 96-well plate, 37° C., 10 h): 25 µg/mL
5 | PRT457 (DVDECLQGRCEQVCVNSPGSYTCHCDGRGGLKLSQDMDTCE; listed as Homo sapiens) | 50 |  |  |  |  |  |  |  |  |  |  | 25 | 12.5 | 50 | 25 | 12.5 | 25 | 50 | 12.5 | 50 | MIC against S. marcescens ([11]; 96-well plate, 37° C., 10 h): 12.5 µg/mL
